Results on one compound are retold here after US6300327A, “Compositions and methods for potentiation of neurotrophin activity” (The University of Southern California, priority 1997, dated 2001).

The structures appear in SMILES notation. “Also recorded” adds a separate entry of the source.

For one data set, the system named is PC12 cells. Nature of the data set: Neurite outgrowth of PC12 cells. In kind it is cell-based. To be noted: 48 hours. As for the experimental part:
PC12 cells were grown as described earlier [Kaplan et al., 1990, 1991a, b]. To assess effects on neurite outgrowth, cells were incubated for 48 hours with K-252b (50 nM) and NT-3 or NGF (50 ng/ml). Neurites were scored if they were a length of one cell body or more.
(§1) Experiments on PC12 cells confirmed observations made on primary neuron cultures. Treatment with K-252b stimulated NT-3 induced neurite outgrowth and trk tyrosine phosphorylation in PC12 cells while inhibiting NGF induced effects. PC12 cells were incubated for 48 hours with K-252b (50 nM) and NT-3 or NGF (50 ng/ml). FIG. 4A illustrates the % cells with neurites after 48 hours incubation. Neurites were scored if they were a length of one cell body or more. PC12 cells were subsequently lysed and immunoprecipitated with anti-trk serum. trk proteins were subjected to SDS-PAGE and analyzed by immunoblotting with anti-phosphotyrosine antibodies (FIG. 4B). Lane 1, NT-3 +K-252b; lane 2, NT-3; lane 3, NGF +K-252b; lane 4, NGF. For FIG. 4C, PC12 cells were incubated for 1 hour in K-252b (50 nM or 10 μM) and with NT-3 or NGF for 5 minutes prior to lysis; other methods were the same as described for FIG. 4B. Lane 1, NT-3+10 μM K-252b; lane 2, NT-3±50 nM K-252b; lane 3, NT-3; lane 4, NGF+10 μM K-252b; lane 5, NGF+50 nM K-252b; lane 6, NGF; lane 7, untreated control.

The test system of a further data set is trk. Kind of data set: trk tyrosine phosphorylation in PC12 cells (immunoprecipitation, anti-phosphotyrosine immunoblot). In kind it is cell-based. As for the experimental part:
To measure the status of trk tyrosine phosphorylation, PC12 cells were lysed and immunoprecipitated with anti-trk serum. The trk proteins were subjected to 7.5% SDS-PAGE and analyzed by immunoblotting with anti-phosphotyrosine antibodies as described in detail in the literature [Kaplan, D. R. et al., "PDGF beta receptor stimulates tyrosine phosphorylation of GAP and association of GAP with a signaling complex," Cell 61:125-133 (1990)]. Tyrosine phosphorylation of cellular proteins was assayed by probing Western blots of lysates of PC12 cells incubated with K-252b and NT-3 or NGF with anti-phosphotyrosine antibodies. Phospholipase C gammal was identified in these blots as described elsewhere [Vetter, M.L. et al., "Nerve growth factor rapidly stimulates tyrosine phosphorylation of phospholipase C-gammal by a kinase activity associated with the product of trk protooncogene," Proc. Natl Acad. Sci. USA 88:5650-5654 (1991)].
as §1
In general terms: Immunoblotting shows a protein as a band on a membrane.

Another data set in a line: Cytotoxicity in vitro. In kind it is cell-based.
The target in data set [1] is cAMP-dependent protein kinase. To be noted: in vitro assay systems; cited from earlier work.
Data set [2] relates to protein kinase activity of the platelet-derived growth factor. Particulars: cell-free preparations; cited from earlier work.

Take `CC12OC(CC1(O)C(=O)O)n1c3ccccc3c3c4c(c5c6ccccc6n2c5c31)CNC4=O` (stereo not drawn) [K-252b]: in the data set with PC12 cells (50 nM K-252b + NGF 50 ng/ml), the “reduction of NGF-induced neurite outgrowth” value was “approximately three-fold”. Moreover, the “effect on NT-3 induced neurite outgrowth” value in the data set on PC12 cells (50 nM K-252b + NT-3 50 ng/ml, vs NT-3 alone) is listed as “significantly more neurite outgrowth activity”. The “trk tyrosine phosphorylation with NT-3” value is recorded as “clear increase” in the data set on trk (50 nM K-252b + NT-3, 48 hours) and “greatly enhanced” with trk (1 hour K-252b followed by 5 minutes NT-3). Further, in the data set with trk (10 μM K-252b, 1 hour, then NGF 5 minutes), the “effect on NGF-induced trk phosphorylation” value was “partially inhibited”. In addition, in the data set on trk (K-252b alone), the “trk tyrosine phosphorylation, inhibitor alone without NT-3” value was “identical to untreated controls”. Moreover, in the data set “Cytotoxicity in vitro”, the cytotoxicity result is listed as “lacked cytotoxicity; also recorded: non-toxic”. Also, the Ki in data set [1] was 10 to 100 nM. The “inhibition of protein kinase activity of the platelet-derived growth factor” value in data set [2] is given as “inhibits”.

Broadly, the Ki is a measure of affinity in units of concentration, obtained from inhibition or displacement.
